# Results: article PMC5856786, “A DHODH inhibitor increases p53 synthesis and enhances tumor cell killing by p53 degradation blockage” (Nature Communications, 2018)
# Key:
# RNA levels in ARN8 cells = experiment: RNASeq differential expression and gene ontology analysis; type: cell-based, human; conditions: ARN8, 5 h
# Description: Libraries were generated using the NEBNext Ultra Directional RNA Library Prep Kit for Illumina (New England Biolabs). Data are deposited at GEO with the accession code: GSE87577. […] Differential expression and gene ontology analysis are in Supplementary Data 1. Values correspond to the average of three biological repeats.
# ARN8 cells [1] = experiment: PI flow cytometry, sub-G1 cells, ARN8; type: cell-based, human; conditions: for DMSO control subtracted effect (cells in sub-G1) / sub-G1 cells: ARN8 72 h
# Method: (§1) Cell cycle distribution analysis was performed on a Becton Dickinson FACScan flow cytometer or FACSCalibur (BD Biosciences) following staining with propidium iodide (PI) or dual labeling with BrdU and PI[36]. These assays were analyzed using CellQuest Pro (BD Biosciences).
# ARN8 cells [2] = experiment: BrdU/PI flow cytometry, cell cycle distribution; type: cell-based, human
# Method: as §1
# CDK3/CycE1 = CDK3/CycE1 (Homo sapiens, UniProt Q00526); experiment: biochemical; design: radiometric 33PanQinase protein kinase activity assay, CDK/cyclin panel, per cent remaining activity; conditions: read-out: HZ00 10 µM Average (% remaining activity)
# Description: (§2) Supplementary Table 1. In vitro inhibition (% remaining activity) of cyclin-dependent
# (§3) ProQinase GmbH (Freiburg, Germany) using a radiometric protein kinase assay
# (§4) (33PanQinase® Activity Assay).
# (§5) (1 picture or pasted object on this page, not shown here) 32 Supplementary Table 1. In vitro inhibition (% remaining activity) of cyclin-dependent kinases (CDKs).
# PCTAIRE1/CycY = molecular target: T1, PCTAIRE1/CycY (Homo sapiens, UniProt Q00536); experiment: biochemical; design: radiometric 33PanQinase protein kinase activity assay, CDK/cyclin panel, per cent remaining activity; conditions: read-out: HZ00 10 µM Average (% remaining activity)
# T1 construct: gene CDK16
# Description: as §2, §3, §4, §5
# CDK1/CycE1 = CDK1/CycE1 (Homo sapiens, UniProt P06493); experiment: biochemical; design: radiometric 33PanQinase protein kinase activity assay, CDK/cyclin panel, per cent remaining activity; conditions: read-out: HZ00 10 µM Average (% remaining activity)
# Description: as §2, §3, §4, §5
# CDK7/CycH/MAT1 = CDK7/CycH/MAT1 (Homo sapiens, UniProt P50613); experiment: biochemical; design: radiometric 33PanQinase protein kinase activity assay, CDK/cyclin panel, per cent remaining activity; conditions: read-out: HZ00 10 µM Average (% remaining activity)
# Description: as §2, §3, §4, §5
# CDK5/p25NCK = molecular target: T2, CDK5/p25NCK (Homo sapiens, UniProt Q00535); experiment: biochemical; design: radiometric 33PanQinase protein kinase activity assay, CDK/cyclin panel, per cent remaining activity; conditions: read-out: HZ00 10 µM Average (% remaining activity)
# T2 construct: p25
# Description: as §2, §3, §4, §5
# CDK2/CycE1 = CDK2/CycE1 (Homo sapiens, UniProt P24941); experiment: biochemical; design: radiometric 33PanQinase protein kinase activity assay, CDK/cyclin panel, per cent remaining activity; conditions: read-out: HZ00 10 µM Average (% remaining activity)
# Description: as §2, §3, §4, §5
# CDK2/CycA2 = CDK2/CycA2 (Homo sapiens, UniProt P24941); experiment: biochemical; design: radiometric 33PanQinase protein kinase activity assay, CDK/cyclin panel, per cent remaining activity; conditions: read-out: HZ00 10 µM Average (% remaining activity)
# Description: as §2, §3, §4, §5
# CDK4/CycD1 = CDK4/CycD1 (Homo sapiens, UniProt P11802); experiment: biochemical; design: radiometric 33PanQinase protein kinase activity assay, CDK/cyclin panel, per cent remaining activity; conditions: read-out: HZ00 10 µM Average (% remaining activity)
# Description: as §2, §3, §4, §5
# CDK8/CycC = CDK8/CycC (Homo sapiens, UniProt P49336); experiment: biochemical; design: radiometric 33PanQinase protein kinase activity assay, CDK/cyclin panel, per cent remaining activity; conditions: read-out: HZ00 10 µM Average (% remaining activity)
# Description: as §2, §3, §4, §5
# CDK1/CycA2 = CDK1/CycA2 (Homo sapiens, UniProt P06493); experiment: biochemical; design: radiometric 33PanQinase protein kinase activity assay, CDK/cyclin panel, per cent remaining activity; conditions: read-out: HZ00 10 µM Average (% remaining activity)
# Description: as §2, §3, §4, §5
# CDK1/CycB1 = CDK1/CycB1 (Homo sapiens, UniProt P06493); experiment: biochemical; design: radiometric 33PanQinase protein kinase activity assay, CDK/cyclin panel, per cent remaining activity; conditions: read-out: HZ00 10 µM Average (% remaining activity)
# Description: as §2, §3, §4, §5
# CDK9/CycK = CDK9/CycK (Homo sapiens, UniProt P50750); experiment: biochemical; design: radiometric 33PanQinase protein kinase activity assay, CDK/cyclin panel, per cent remaining activity; conditions: read-out: HZ00 10 µM Average (% remaining activity)
# Description: as §2, §3, §4, §5
# CDK4/CycD3 = CDK4/CycD3 (Homo sapiens, UniProt P11802); experiment: biochemical; design: radiometric 33PanQinase protein kinase activity assay, CDK/cyclin panel, per cent remaining activity; conditions: read-out: HZ00 10 µM Average (% remaining activity)
# Description: as §2, §3, §4, §5
# CDK5/p35NCK = molecular target: T3, CDK5/p35NCK (Homo sapiens, UniProt Q00535); experiment: biochemical; design: radiometric 33PanQinase protein kinase activity assay, CDK/cyclin panel, per cent remaining activity; conditions: read-out: HZ00 10 µM Average (% remaining activity)
# T3 construct: p35
# Description: as §2, §3, §4, §5
# CDK6/CycD1 = CDK6/CycD1 (Homo sapiens, UniProt Q00534); experiment: biochemical; design: radiometric 33PanQinase protein kinase activity assay, CDK/cyclin panel, per cent remaining activity; conditions: read-out: HZ00 10 µM Average (% remaining activity)
# Description: as §2, §3, §4, §5
# ARN8 cells [3] = experiment: SRB growth/viability assay, ARN8; type: cell-based, human; conditions: for effect on cell growth and p53 activation in presence of excess uridine: uridine 100 μM
# Method: SRB assays measuring protein content were performed in 96-well plates as previously described.
# ARN8 cells [4] = experiment: Giemsa staining of ARN8 cultures (uridine, orotic acid, dihydroorotic acid supplementation); type: cell-based, human; conditions: 72 h, 2.5 or 5 μM uridine, serum replacement medium
# Method: Additionally, ARN8 cells were treated for 16 h and p53-dependent transcription was measured by CPRG assay. Values correspond to the average of three technical repeats ± SD. c Simplified description of the pyrimidine nucleotide de novo (blue) and salvage (black) pathways. d ARN8 cells were seeded in FBS supplemented DMEM with a change to serum replacement medium 24 h post seeding. […] Values correspond to the average of three technical repeats ± SD. f ARN8 cells were seeded in FBS supplemented DMEM with a change to serum replacement medium 24 h post seeding.
# T1 sequence (Q00536 whole entry): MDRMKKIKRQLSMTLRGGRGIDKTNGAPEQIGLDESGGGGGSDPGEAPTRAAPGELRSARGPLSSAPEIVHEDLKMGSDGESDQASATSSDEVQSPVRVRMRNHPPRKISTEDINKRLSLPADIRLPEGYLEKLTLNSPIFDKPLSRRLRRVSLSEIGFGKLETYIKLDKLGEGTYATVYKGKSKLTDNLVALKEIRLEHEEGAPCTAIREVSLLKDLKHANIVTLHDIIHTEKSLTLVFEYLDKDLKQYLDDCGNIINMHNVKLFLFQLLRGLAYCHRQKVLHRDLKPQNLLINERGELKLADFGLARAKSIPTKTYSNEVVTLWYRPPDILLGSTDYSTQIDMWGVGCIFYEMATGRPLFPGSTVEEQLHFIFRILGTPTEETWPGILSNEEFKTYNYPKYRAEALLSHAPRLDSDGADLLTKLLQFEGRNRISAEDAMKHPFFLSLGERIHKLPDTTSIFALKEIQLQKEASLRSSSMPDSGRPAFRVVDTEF
# T1 sequence (Q8ND76 whole entry partner): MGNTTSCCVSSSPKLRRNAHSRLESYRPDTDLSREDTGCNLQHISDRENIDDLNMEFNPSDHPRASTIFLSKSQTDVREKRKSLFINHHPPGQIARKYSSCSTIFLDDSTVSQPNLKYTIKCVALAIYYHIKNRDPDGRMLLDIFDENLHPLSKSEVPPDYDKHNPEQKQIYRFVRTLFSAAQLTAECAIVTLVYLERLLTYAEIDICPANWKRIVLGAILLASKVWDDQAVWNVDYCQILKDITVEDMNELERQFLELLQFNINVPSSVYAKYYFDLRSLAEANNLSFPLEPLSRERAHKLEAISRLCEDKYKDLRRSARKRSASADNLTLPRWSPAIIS
# Sequence of CDK4/CycD3 (P11802 whole entry): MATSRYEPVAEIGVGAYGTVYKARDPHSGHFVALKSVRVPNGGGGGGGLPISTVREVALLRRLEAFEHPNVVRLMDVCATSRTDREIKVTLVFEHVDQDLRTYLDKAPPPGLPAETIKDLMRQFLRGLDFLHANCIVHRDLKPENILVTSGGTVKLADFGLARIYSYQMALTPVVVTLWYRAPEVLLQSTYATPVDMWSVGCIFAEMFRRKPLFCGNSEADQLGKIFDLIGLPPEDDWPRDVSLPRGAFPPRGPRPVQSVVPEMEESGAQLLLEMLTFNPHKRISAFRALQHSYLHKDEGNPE
# Sequence of CDK4/CycD3 (P30281 whole entry partner): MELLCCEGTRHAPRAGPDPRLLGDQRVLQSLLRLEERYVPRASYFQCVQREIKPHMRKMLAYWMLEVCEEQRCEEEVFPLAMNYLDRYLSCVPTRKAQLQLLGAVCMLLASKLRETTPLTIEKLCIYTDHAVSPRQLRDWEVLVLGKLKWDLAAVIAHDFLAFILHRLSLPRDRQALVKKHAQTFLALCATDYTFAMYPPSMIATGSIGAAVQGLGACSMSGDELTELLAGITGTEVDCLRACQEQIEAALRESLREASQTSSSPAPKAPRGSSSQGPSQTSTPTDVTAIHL
# Sequence of CDK4/CycD1 (P11802 whole entry): as the sequence (P11802 whole entry) above
# Sequence of CDK4/CycD1 (P24385 whole entry partner): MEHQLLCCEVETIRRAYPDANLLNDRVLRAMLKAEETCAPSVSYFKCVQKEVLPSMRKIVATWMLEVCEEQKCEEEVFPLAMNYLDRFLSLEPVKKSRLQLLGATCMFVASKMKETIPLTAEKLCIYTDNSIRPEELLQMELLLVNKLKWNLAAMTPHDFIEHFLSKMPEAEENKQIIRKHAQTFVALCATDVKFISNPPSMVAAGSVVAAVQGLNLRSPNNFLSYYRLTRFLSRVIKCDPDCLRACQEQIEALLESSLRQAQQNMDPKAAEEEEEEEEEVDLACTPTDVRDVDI
# Sequence of CDK3/CycE1 (Q00526 whole entry): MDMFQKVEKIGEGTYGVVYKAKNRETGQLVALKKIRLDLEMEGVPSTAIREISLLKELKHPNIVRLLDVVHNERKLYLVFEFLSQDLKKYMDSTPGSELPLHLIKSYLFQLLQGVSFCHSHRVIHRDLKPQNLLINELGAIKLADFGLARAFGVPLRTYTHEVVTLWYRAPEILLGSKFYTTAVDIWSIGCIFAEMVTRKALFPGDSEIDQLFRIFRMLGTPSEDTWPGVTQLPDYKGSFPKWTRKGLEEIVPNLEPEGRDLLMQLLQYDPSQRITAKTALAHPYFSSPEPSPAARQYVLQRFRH
# Sequence of CDK3/CycE1 (P24864 whole entry partner): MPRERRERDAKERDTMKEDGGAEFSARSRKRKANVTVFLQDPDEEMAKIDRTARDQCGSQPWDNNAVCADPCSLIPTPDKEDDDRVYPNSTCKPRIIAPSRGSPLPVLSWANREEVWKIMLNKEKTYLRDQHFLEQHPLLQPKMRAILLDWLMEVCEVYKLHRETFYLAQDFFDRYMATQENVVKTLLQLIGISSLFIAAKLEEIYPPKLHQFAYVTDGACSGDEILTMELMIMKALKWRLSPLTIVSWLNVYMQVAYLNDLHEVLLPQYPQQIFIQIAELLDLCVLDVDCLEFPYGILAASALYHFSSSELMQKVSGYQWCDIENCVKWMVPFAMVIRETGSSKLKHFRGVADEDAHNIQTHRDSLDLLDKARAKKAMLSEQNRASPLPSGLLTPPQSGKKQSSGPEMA
# Sequence of CDK8/CycC (P49336 whole entry): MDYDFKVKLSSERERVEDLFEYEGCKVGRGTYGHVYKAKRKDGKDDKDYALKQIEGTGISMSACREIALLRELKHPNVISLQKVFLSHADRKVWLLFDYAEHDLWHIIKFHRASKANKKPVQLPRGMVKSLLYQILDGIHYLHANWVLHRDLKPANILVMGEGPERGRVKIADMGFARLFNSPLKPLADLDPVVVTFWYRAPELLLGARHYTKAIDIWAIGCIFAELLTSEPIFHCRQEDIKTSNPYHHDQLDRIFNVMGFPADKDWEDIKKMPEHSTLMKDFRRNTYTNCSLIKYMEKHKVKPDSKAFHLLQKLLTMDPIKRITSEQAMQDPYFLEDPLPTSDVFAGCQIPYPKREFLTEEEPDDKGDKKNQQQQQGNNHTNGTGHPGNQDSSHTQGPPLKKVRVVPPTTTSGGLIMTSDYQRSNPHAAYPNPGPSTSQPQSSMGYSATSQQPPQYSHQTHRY
# Sequence of CDK8/CycC (P24863 whole entry partner): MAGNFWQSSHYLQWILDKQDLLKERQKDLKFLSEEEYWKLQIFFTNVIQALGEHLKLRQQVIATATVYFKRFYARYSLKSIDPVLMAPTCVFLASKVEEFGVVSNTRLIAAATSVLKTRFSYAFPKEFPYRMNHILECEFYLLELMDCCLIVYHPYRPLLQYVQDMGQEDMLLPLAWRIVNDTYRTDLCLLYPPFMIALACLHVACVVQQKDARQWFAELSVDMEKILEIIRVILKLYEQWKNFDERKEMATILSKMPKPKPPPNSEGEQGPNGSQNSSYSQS
# Sequence of CDK1/CycE1 (P06493 whole entry): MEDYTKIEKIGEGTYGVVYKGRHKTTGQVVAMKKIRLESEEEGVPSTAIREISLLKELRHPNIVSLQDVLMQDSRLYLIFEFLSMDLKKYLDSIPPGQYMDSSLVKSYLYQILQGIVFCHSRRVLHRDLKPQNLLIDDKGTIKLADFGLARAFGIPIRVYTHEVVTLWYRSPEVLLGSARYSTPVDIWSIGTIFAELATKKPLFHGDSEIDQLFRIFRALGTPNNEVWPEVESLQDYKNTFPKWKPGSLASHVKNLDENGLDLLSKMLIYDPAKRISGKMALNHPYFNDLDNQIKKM
# Sequence of CDK1/CycE1 (P24864 whole entry partner): as the sequence (P24864 whole entry partner) above
# Sequence of CDK1/CycB1 (P06493 whole entry): as the sequence (P06493 whole entry) above
# Sequence of CDK1/CycB1 (P14635 whole entry partner): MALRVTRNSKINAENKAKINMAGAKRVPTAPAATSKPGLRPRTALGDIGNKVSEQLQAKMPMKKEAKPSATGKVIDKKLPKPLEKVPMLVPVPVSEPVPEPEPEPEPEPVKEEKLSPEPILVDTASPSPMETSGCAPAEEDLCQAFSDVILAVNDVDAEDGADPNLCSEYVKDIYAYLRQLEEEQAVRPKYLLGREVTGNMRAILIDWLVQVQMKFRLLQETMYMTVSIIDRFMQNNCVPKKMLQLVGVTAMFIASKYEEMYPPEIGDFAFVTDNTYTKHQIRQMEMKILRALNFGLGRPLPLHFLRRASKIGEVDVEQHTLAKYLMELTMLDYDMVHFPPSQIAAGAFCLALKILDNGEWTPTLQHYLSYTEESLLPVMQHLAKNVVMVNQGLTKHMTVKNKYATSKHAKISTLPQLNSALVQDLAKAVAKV
# Sequence of CDK6/CycD1 (Q00534 whole entry): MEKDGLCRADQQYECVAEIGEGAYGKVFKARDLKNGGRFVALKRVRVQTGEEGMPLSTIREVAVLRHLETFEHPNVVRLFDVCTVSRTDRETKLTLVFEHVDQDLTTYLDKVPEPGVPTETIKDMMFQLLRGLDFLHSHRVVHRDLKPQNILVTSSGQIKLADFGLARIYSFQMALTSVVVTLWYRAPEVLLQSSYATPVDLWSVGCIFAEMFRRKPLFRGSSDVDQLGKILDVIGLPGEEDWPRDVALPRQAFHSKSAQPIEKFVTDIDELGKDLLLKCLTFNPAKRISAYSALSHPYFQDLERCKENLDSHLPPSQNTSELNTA
# Sequence of CDK6/CycD1 (P24385 whole entry partner): as the sequence (P24385 whole entry partner) above
smiles,measurement,setting,value
O=C(NC1CCCc2c1cnn2-c1ccccc1F)c1ccccn1 (stereo not drawn) [HZ00],"log2FoldChange, drug vs DMSO, gene ENSG00000166436",RNA levels in ARN8 cells; sheet Drug HZ00vsDMSO (20 μM),-1.5997
same,"log2FoldChange, drug vs DMSO, gene ENSG00000197153",RNA levels in ARN8 cells; sheet Drug HZ00vsDMSO (20 μM),-1.477
same,"log2FoldChange, drug vs DMSO, gene ENSG00000204569",RNA levels in ARN8 cells; sheet Drug HZ00vsDMSO (20 μM),-2.244
same,"log2FoldChange, drug vs DMSO, gene ENSG00000221926",RNA levels in ARN8 cells; sheet Drug HZ00vsDMSO (20 μM),-1.707
same,"log2FoldChange, drug vs DMSO, gene ENSG00000277224",RNA levels in ARN8 cells; sheet Drug HZ00vsDMSO (20 μM),-1.408
same,synergy with nutlin-3 (cell kill),"ARN8 cells [1]; ARN8 in vitro, 72 h, additivity and Bliss independence models",synergistic cell kill
same,accumulation of cells in S-phase,ARN8 cells [2],accumulates ARN8 cells in S-phase
same,remaining activity at 10 µM,CDK3/CycE1,96.6%
same,remaining activity at 10 µM,PCTAIRE1/CycY,103%
same,remaining activity at 10 µM,CDK1/CycE1,101%
same,remaining activity at 10 µM,CDK7/CycH/MAT1,96.2%
same,remaining activity at 10 µM,CDK5/p25NCK,104%
same,remaining activity at 10 µM,CDK2/CycE1,102%
same,remaining activity at 10 µM,CDK2/CycA2,96%
same,remaining activity at 10 µM,CDK4/CycD1,104%
same,remaining activity at 10 µM,CDK8/CycC,95.2%
same,remaining activity at 10 µM,CDK1/CycA2,89.1%
same,remaining activity at 10 µM,CDK1/CycB1,104%
same,remaining activity at 10 µM,CDK9/CycK,100%
same,remaining activity at 10 µM,CDK4/CycD3,89.2%
same,remaining activity at 10 µM,CDK5/p35NCK,105%
same,remaining activity at 10 µM,CDK6/CycD1,103%
same,effect on cell growth and p53 activation in presence of excess uridine,ARN8 cells [3]; ARN8,completely abolished
O=C(NC1CCCc2c1cnn2-c1ccccc1F)c1onc2c1CCCC2 (stereo not drawn) [HZ05],"log2FoldChange, drug vs DMSO, gene ENSG00000121101",RNA levels in ARN8 cells; sheet Drug HZ05vsDMSO (5 μM),-2.498
same,"log2FoldChange, drug vs DMSO, gene ENSG00000197153",RNA levels in ARN8 cells; sheet Drug HZ05vsDMSO (5 μM),-1.694
same,"log2FoldChange, drug vs DMSO, gene ENSG00000204569",RNA levels in ARN8 cells; sheet Drug HZ05vsDMSO (5 μM),-2.424
same,"log2FoldChange, drug vs DMSO, gene ENSG00000221926",RNA levels in ARN8 cells; sheet Drug HZ05vsDMSO (5 μM),-1.667
same,"log2FoldChange, drug vs DMSO, gene ENSG00000276410",RNA levels in ARN8 cells; sheet Drug HZ05vsDMSO (5 μM),-1.7121
same,DMSO control subtracted effect (cells in sub-G1),ARN8 cells [1]; HZ05 250 nM + nutlin-3a 0 µM,0.06
same,DMSO control subtracted effect (cells in sub-G1),ARN8 cells [1]; HZ05 250 nM + nutlin-3a 5 µM,0.27
same,DMSO control subtracted effect (cells in sub-G1),ARN8 cells [1]; HZ05 250 nM + nutlin-3a 10 µM,0.48
same,DMSO control subtracted effect (cells in sub-G1),ARN8 cells [1]; HZ05 250 nM + nutlin-3a 15 µM,0.69
same,DMSO control subtracted effect (cells in sub-G1),ARN8 cells [1]; HZ05 250 nM + nutlin-3a […],0.61
same,sub-G1 cells,ARN8 cells [1]; HZ05 400 nM (Fig. 6c),16.61%
same,sub-G1 cells,ARN8 cells [1]; HZ05 400 nM + nutlin-3a 1 μM,36.73%
same,sub-G1 cells,ARN8 cells [1]; HZ05 400 nM + nutlin-3a 2.5 μM,46.63%
same,sub-G1 cells,ARN8 cells [1]; HZ05 400 nM + nutlin-3a 5 μM,54.06%
same,DMSO control subtracted effect (cells in sub-G1),ARN8 cells [1]; HZ05 500 nM + nutlin-3a 0 µM,0.08
same,DMSO control subtracted effect (cells in sub-G1),ARN8 cells [1]; HZ05 500 nM + nutlin-3a 5 µM,0.35
same,DMSO control subtracted effect (cells in sub-G1),ARN8 cells [1]; HZ05 500 nM + nutlin-3a 10 µM,0.60
same,DMSO control subtracted effect (cells in sub-G1),ARN8 cells [1]; HZ05 500 nM + nutlin-3a 15 µM,0.67
same,DMSO control subtracted effect (cells in sub-G1),ARN8 cells [1]; HZ05 500 nM + nutlin-3a […],0.58
same,sub-G1 cells,ARN8 cells [1]; HZ05 1 μM (Fig. 6b),31.06%
same,DMSO control subtracted effect (cells in sub-G1),ARN8 cells [1]; HZ05 1000 nM + nutlin-3a 10 µM,0.56
same,DMSO control subtracted effect (cells in sub-G1),ARN8 cells [1]; HZ05 1000 nM + nutlin-3a 15 µM,0.71
same,DMSO control subtracted effect (cells in sub-G1),ARN8 cells [1]; HZ05 1000 nM + nutlin-3a […],0.62
same,sub-G1 cells,ARN8 cells [1]; HZ05 2.5 μM (Fig. 6b),35.04%
same,DMSO control subtracted effect (cells in sub-G1),ARN8 cells [1]; HZ05 […] + nutlin-3a 0 µM,0.03
same,DMSO control subtracted effect (cells in sub-G1),ARN8 cells [1]; HZ05 […] + nutlin-3a 5 µM,0.19
same,DMSO control subtracted effect (cells in sub-G1),ARN8 cells [1]; HZ05 […] + nutlin-3a 10 µM,0.39
same,DMSO control subtracted effect (cells in sub-G1),ARN8 cells [1]; HZ05 […] + nutlin-3a 15 µM,0.63
same,synergy with nutlin-3a (cell kill),"ARN8 cells [1]; ARN8 in vitro, 72 h",strong synergistic cell kill
same,tumor cell growth at physiological uridine levels,ARN8 cells [4],able to ablate tumor cell growth
same,accumulation of cells in S-phase,ARN8 cells [2],accumulation of ARN8 cells in S-phase
same,effect of serum albumin concentration on activity,"ARN8 cells [3]; ARN8, 72 h, increasing BSA",affected to a lesser degree than brequinar
same,effect on cell growth and p53 activation in presence of excess uridine,ARN8 cells [3]; ARN8,prevented by addition of excess uridine
same,concentration reducing cell viability or growth,"ARN8 cells [3]; cultured cells, authors' response in peer review file",~160 nM
